Assay results published in US20230250083A1, “CRYSTALS” (NIPPON SHINYAKU CO., LTD., priority 2017, published 2023).
Blank lines part the entries; values can stand above or below the compound they belong to.

Assays:
Assay type in all cases: physicochemical
[1] = Stability test (sealed glass bottle, 90° C.)
Method: The Form-II crystal of the compound A was put in a glass bottle, and the glass bottle was tightly sealed and stored at 90° C. The sample was taken out after 1 day, 3 days, and 7 days, and was dissolved in methanol at a concentration of 1 mg/mL. Each solution was subjected to measurement of analogs by HPLC. As for the crystals after 7 days, the crystal form was confirmed.

[2] = Crystallization experiments using various solvents, overall outcome; settings: operation procedures 1 to 4, Tables 1 to 3
Method: Each of various solvents was added to the Form-I crystal of the present invention (several mg), crystals of the compound A were precipitated according to the following operation procedures, and the crystal form of the precipitated crystals was confirmed. The results of the operation procedures 1 to 3 are shown in Table 1 and Table 2, and the results of the operation procedure 4 are shown in Table 3. The symbol “-” in Table 1 to Table 3 means that no precipitate was obtained.

[3] = Solvent-mediated transformation test; settings: for Crystal form after 1 day / Crystal form after 5 days: stirred at room temperature
Method: Each solvent was added to the Form-I crystal of the compound A, and the mixture was stirred at room temperature for 24 hours, and then, insolubles was filtered to prepare a saturated solution. Mixed crystals (about 10 mg) in which the Form-I crystal and the Form-II crystal were mixed at 1:1 were added to each solution, and the resultant mixture was stirred at room temperature for 5 days. Formed crystals were collected through filtration, and the crystal form thereof was confirmed.

[4] = 90° C., after 1 day, tightly sealed glass bottle
[5] = 90° C., after 3 days, tightly sealed glass bottle
[6] = 90° C., after 7 days, tightly sealed glass bottle
[7] = acetone:water 20:80 saturated with Form-I
[8] = acetonitrile saturated with Form-I

Appearance [1, 4]: no change
HPLC area (%) [1, 4]: 99.7%
Appearance [1, 5]: no change
HPLC area (%) [1, 5]: 99.8%
Appearance [1, 6]: no change
Crystal form after 7 days [1, 6]: Form-II
HPLC area (%) [1, 6]: 99.6%
Appearance ([1]; Before storage): pale yellow crystal
HPLC area (%) ([1]; Before storage): 99.7%
Compound: C[C@H](Nc1cc(-c2cnn(C)c2)cc(Nc2cnccn2)n1)c1ccc(F)cc1.O=C(O)/C=C\C(=O)O [Form-II]
crystallization from various solvents (which form crystallizes) ([2]; listed as Form-II crystal of the present invention): crystallized only in water-containing systems

Crystal form after 1 day [3, 7]: Form-I
Crystal form after 5 days [3, 7]: Form-I
Crystal form after 1 day [3, 8]: Form-I
Crystal form after 5 days [3, 8]: Form-I
crystal form transformation of mixed crystals ([3]; after 5 days, in acetonitrile, ethyl acetate, and water-containing acetone at room temperature): all transformed to the Form-I crystal
Crystal form after 5 days ([3]; ethyl acetate saturated with Form-I): Form-I
Compound: C[C@H](Nc1cc(-c2cnn(C)c2)cc(Nc2cnccn2)n1)c1ccc(F)cc1.O=C(O)/C=C\C(=O)O [Form-I + Form-II (1:1)]

thermodynamic stability in solvent ([3]; acetonitrile, ethyl acetate, water-containing acetone at room temperature): thermodynamically stable
crystallization from various solvents (which form crystallizes) [2]: preferentially crystallized
Compound: C[C@H](Nc1cc(-c2cnn(C)c2)cc(Nc2cnccn2)n1)c1ccc(F)cc1.O=C(O)/C=C\C(=O)O [Form-I crystal of the present invention]
